Reference: patent publication US20240294572A1, “Antimicrobial Peptides” (priority 2021, published 2024)
Non-standard residues stand in square brackets, D forms with d. Residues, ends and D or L forms follow the SMILES beside them. *: point of attachment. Decanoyl = CCCCCCCCCC(=O)*

Key:
[1] = tested on: S. aureus USA300 transposon mutant SAUSA300_0394; assay: Antimicrobial susceptibility of transposon mutant; type: cell-based; parameters: key: No = no MIC changes of C10-KR8d against the WT and the mutant S. aureus strains measured in 50% TSB; details: mutant SAUSA300_0394 versus WT
Protocol: (§1) The antimicrobial susceptibility of over 20 MRSA transposon mutants were also tested, based on a transposon library screening, in the presence of LL-37 peptides (Golla, et al. (2020) ACS Infect. Dis., 6:1866-1881). This Nebraska Transposon Mutant Library of S. aureus USA300 consists of 1920 mutants, each with one nonessential gene disabled due to a transposon insertion (Fey, et al. (2013) mBio 4:e00537-12). The correct insertion of the transposon to each Staph mutant had been verified (Golla, et al. (2020) ACS Infect. Dis., 6:1866-1881). Antimicrobial susceptibility to the new peptide C10-KR8d was evaluated in the same manner as MIC assays. Susceptible strains could be inhibited at a peptide concentration lower than the MIC against the wild strain S. aureus JE2.

[2] = tested on: S. aureus USA300 transposon mutant SAUSA300_0829 (lipA); assay: Antimicrobial susceptibility of transposon mutant; type: cell-based; parameters: key: No = no MIC changes of C10-KR8d against the WT and the mutant S. aureus strains measured in 50% TSB; details: mutant SAUSA300_0829 lipA versus WT
Protocol: as §1

[3] = tested on: S. aureus USA300 transposon mutant SAUSA300_1097 (pyrF); assay: Antimicrobial susceptibility of transposon mutant; type: cell-based; parameters: key: No = no MIC changes of C10-KR8d against the WT and the mutant S. aureus strains measured in 50% TSB; details: mutant SAUSA300_1097 pyrF versus WT
Protocol: as §1

[4] = tested on: S. aureus USA300 transposon mutant SAUSA300_1336; assay: Antimicrobial susceptibility of transposon mutant; type: cell-based; parameters: key: No = no MIC changes of C10-KR8d against the WT and the mutant S. aureus strains measured in 50% TSB; details: mutant SAUSA300_1336 versus WT
Protocol: as §1

[5] = tested on: S. aureus USA300 transposon mutant SAUSA300_1867; assay: Antimicrobial susceptibility of transposon mutant; type: cell-based; parameters: key: No = no MIC changes of C10-KR8d against the WT and the mutant S. aureus strains measured in 50% TSB; details: mutant SAUSA300_1867 versus WT
Protocol: as §1

[6] = tested on: S. aureus USA300 transposon mutant SAUSA300_1898; assay: Antimicrobial susceptibility of transposon mutant; type: cell-based; parameters: key: No = no MIC changes of C10-KR8d against the WT and the mutant S. aureus strains measured in 50% TSB; details: mutant SAUSA300_1898 versus WT
Protocol: as §1

[7] = molecular target: T1, Apolipoprotein A-II (P09813) (Mus musculus, UniProt P09813); assay: Mass spectrometry of mouse plasma proteins bound to bead-immobilized peptide; type: binding; details: intensity bound to L-form / D-form of C10-KR8
T1 construct: incubated with 5% mouse plasma; from tissue; host or cells: mouse plasma (5%)
T1 sequence (P09813 19-102): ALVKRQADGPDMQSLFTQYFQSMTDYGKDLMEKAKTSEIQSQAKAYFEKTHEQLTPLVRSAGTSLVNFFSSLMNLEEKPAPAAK
Protocol: (§2) Dynabeads M-370 amine (2×10^9 beads/mL, 50 μL; Thermo Fisher Scientific) were washed 3 times in sterile PBS (1 mL; GIBCO) and reacted with a bifunctional SM(PEG)4 cross-linker (5 mg/mL in DMSO) containing N-hydroxysuccinimide (NHS) ester and maleimide functional groups. A stable covalent bond between the amino group of beads and the NHS ester of the cross-linker was formed in PBS at pH 7.2 at room temperature for 24 hours with shaking at 80 rpm. The beads were then washed six times with PBS to remove nonreacted cross-linker. Next, peptide C10-KR8 (with a cysteine at the N-terminus) at 5 mg/mL was reacted with the free maleimide group in PBS for 24 hours at room temperature with shaking at 80 rpm. Another round of washing was conducted to remove the nonreacted peptides. Both the L-and D-forms of the peptide were coupled in the same manner. A portion of the beads without peptide coupling was saved as a control.
(§3) For serum binding experiments, the beads were resuspended in 500 μL of PBS; 200-μL aliquots of the coated and control dynabead were incubated with 5% mouse plasma for 18 hours at 37° C. After binding, the beads were washed six times with PBS to remove unbound proteins. Finally, the beads were suspended in 50 μL of PBS for mass spectrophotometric analysis to identify peptide-binding partners.
(§4) The samples were reduced by 10 mM dithiothreitol (DTT) and incubated for 30 minutes at 56° C. and back to room temperature. A final concentration of 50 mM iodoacetamide was added to alkylate free cysteines followed by further incubation for 20 min in the dark. Bound proteins were enzymatically digested by trypsin (4 μL of 0.5 μg/mL) overnight. A 60 […] portion was transferred to a new Eppendorf® tube and dried for 2 hours. The samples were then dissolved in 20 μL of 2% acetonitrile with 0.1% formic acid before being loaded to Q-tip columns (Pepclean, C18 spin column). Column was activated by pipetting in and out (4× times), 10 μL of 70% acetonitrile with 0.1% formic acid, and equilibrating with the same volume of 2% acetonitrile with 0.1% formic acid. Binding of the samples was done by mixing more than 10 × times, followed by washing in the same buffer (2% acetonitrile with 0.1% formic acid). The bound peptides were then eluted with 20 μL of 70% acetonitrile with 0.1% formic acid. Samples were subjected to LC-MS analysis after being suspended in the desired buffer.
(§5) Extracted peptides were resuspended in 2% acetonitrile (ACN) and 0.1% formic acid (FA) and loaded onto trap column Acclaim™ PepMap™ 100 75 μm×2 cm C18 LC Columns (Thermo Scientific) at a flow rate of 4 μL/minute. These were then separated with a Thermo RSLC UltiMate™ 3000 on a Thermo Easy-Spray PepMap™ M RSLC C18 75 μm×50 cm C-18 2 μm column (Thermo Scientific) with a step gradient of 4-25% solvent B (0.1% FA in 80% ACN) from 10 to 37 minutes and 25-45% solvent B for 37-46 minutes at 300 nL/min and 50° C. with a 70 minute total run time. Eluted peptides were analyzed by a Thermo Orbitrap Fusion™ Lumos™ Tribrid™ (Thermo Scientific) mass spectrometer in a data dependent acquisition mode. A survey full scan MS (from m/z 350-1800) was acquired in the orbitrap with a resolution of 120000. The AGC target for MS1 was set as 4×10^5 and the ion filling time set as 100 ms. The most intense ions with charge state 2-6 were isolated in 3 second cycle and fragmented using HCD fragmentation with 40% normalized collision energy and detected at a mass resolution of 30000 at 200 m/z. The AGC target for MS/MS was set as 5×10^4 and ion filling time set 60 ms dynamic exclusion was set for 30 seconds with a 10 ppm mass window. Protein identification was performed by searching MS/MS data against the Swiss-Prot mouse protein database. The search was set up for full tryptic peptides with a maximum of two missed cleavage sites. Acetylation of protein N-terminus and oxidized methionine were included as variable modifications, and carbamidomethylation of cysteine was set as fixed modification. […]

Serum albumin (P07724) = molecular target: T2, Serum albumin (P07724) (Mus musculus, UniProt P07724); assay: as above; type: binding; details: intensity bound to L-form / D-form of C10-KR8
T2 construct: incubated with 5% mouse plasma; from tissue; host or cells: mouse plasma (5%)
T2 sequence (P07724 25-608): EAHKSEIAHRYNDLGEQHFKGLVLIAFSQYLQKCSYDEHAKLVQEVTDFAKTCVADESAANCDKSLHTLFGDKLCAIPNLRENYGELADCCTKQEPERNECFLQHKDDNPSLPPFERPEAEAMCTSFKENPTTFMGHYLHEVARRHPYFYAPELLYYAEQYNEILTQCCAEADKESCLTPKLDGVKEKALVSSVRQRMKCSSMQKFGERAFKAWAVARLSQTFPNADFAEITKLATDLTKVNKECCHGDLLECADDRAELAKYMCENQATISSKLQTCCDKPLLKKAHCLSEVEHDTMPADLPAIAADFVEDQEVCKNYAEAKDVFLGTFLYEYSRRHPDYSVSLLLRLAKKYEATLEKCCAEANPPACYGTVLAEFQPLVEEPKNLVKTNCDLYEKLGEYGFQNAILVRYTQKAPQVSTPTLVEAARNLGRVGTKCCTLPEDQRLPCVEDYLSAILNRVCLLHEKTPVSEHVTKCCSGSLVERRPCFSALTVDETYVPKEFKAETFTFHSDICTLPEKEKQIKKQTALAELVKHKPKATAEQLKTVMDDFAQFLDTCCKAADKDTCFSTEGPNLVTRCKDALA
Protocol: as §2, §3, §4, §5

## CCCCCCCCCC(=O)N[C@H](CCCCN)C(=O)N[C@H](CCCNC(=N)N)C(=O)N[C@@H](C(=O)N[C@H](Cc1c[nH]c2ccccc12)C(=O)N[C@H](CCC(N)=O)C(=O)N[C@H](CCCNC(=N)N)C(=O)N[C@@H](C(=O)N[C@H](CCCCN)C(N)=O)[C@H](C)CC)[C@H](C)CC [Peptide C10-KR8d] (Decanoyl-[dK][dR][dI][dW][dQ][dR][dI][dK]-NH2)
[1]
  Susceptible?: No
[2]
  Susceptible?: No
[3]
  Susceptible?: No
[4]
  Susceptible?: No
[5]
  Susceptible?: No
[6]
  Susceptible?: No

## CCCCCCCCCC(=O)N[C@@H](CCCCN)C(=O)N[C@@H](CCCNC(=N)N)C(=O)N[C@H](C(=O)N[C@@H](Cc1c[nH]c2ccccc12)C(=O)N[C@@H](CCC(N)=O)C(=O)N[C@@H](CCCNC(=N)N)C(=O)N[C@H](C(=O)N[C@@H](CCCCN)C(N)=O)[C@@H](C)CC)[C@@H](C)CC [Peptide C10-KR8] (Decanoyl-KRIWQRIK-NH2)
[7]
  L/D Ratio, Apolipoprotein A-II: 0.00147
Serum albumin (P07724)
  L/D Ratio, Serum albumin: 2.28
